The text below walks through data of patent publication US8513233B2, “Pyrimidinyl-propionic acid derivatives and their use as PPAR agonists” (Shanghai Institute of Materia Medica, CAS, priority 2007, dated 2013).

Common to all, as to assay type: cell-based
One test concerns the target T1, PPAR-γ (Homo sapiens, UniProt P37231).
T1 construct: expressed in transfected cells; host or cells: U2OS cells, transiently transfected with pcDNA3.1 expression vectors (FuGene6)
T1 sequence (P37231 1-505): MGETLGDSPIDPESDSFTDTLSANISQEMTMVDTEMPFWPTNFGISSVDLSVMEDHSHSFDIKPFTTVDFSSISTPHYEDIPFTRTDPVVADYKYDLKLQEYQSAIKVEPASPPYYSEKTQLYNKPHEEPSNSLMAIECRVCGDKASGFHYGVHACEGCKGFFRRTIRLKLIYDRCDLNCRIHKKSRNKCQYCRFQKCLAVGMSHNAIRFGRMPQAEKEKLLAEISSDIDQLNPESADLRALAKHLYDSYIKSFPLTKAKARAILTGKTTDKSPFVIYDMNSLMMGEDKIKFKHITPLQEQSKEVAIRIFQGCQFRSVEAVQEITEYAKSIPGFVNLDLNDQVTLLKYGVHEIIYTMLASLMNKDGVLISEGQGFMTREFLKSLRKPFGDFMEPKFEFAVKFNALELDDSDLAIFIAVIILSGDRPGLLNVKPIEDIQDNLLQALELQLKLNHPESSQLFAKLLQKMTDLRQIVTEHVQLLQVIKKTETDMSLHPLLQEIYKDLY
T1 sequence (P19793 1-462 partner): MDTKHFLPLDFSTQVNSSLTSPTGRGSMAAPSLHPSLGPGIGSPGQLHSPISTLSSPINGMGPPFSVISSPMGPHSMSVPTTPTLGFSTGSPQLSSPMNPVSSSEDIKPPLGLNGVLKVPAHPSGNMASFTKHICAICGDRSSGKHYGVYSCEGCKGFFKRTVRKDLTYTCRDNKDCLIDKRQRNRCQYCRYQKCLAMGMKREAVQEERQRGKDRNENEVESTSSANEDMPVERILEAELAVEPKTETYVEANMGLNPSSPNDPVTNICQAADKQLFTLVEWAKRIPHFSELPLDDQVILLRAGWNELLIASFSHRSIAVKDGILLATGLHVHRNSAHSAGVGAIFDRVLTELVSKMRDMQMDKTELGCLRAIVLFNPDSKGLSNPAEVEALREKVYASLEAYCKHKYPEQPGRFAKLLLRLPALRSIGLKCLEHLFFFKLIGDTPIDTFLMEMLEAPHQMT
In words: Transient transfection and transcription assay (luciferase reporter, U2OS cells). Conditions: 24 h treatment. As for the experimental part: cDNAs for Human RXR, PPAR were obtained by RTPCR from the human liver or adipose tissues. Amplified cDNAs were cloned into pcDNA3.1 expression vector and the inserts were confirmed by sequencing. U2OS cells were cultured in McCoy's 5A with 10% heat-inactivated fetal bovine serum in a humidified 5% CO2 atmosphere at 37° C. Cells were seeded in 96-well plates the day before transfection to give a confluence of 50-80% at transfection. A total of 60 ng of DNA containing 10 ng of hRXR, 10 ng of pCMV Gal, 10 ng of nuclear receptor expression vectors and 30 ng of the corresponding reporters were cotransfected per well using FuGene6 transfection reagent according to the manufacturer's instructions. […] The final concentration of DMSO in culture medium was 0.1%. […] Luciferase activity was monitored using the luciferase assay kit according to the manufacturers instructions. Light emission was read in a Labsystems Ascent Fluoroskan reader. To measure galactosidase activity to normalize the luciferase data, 50 IL of supernatant from each transfection lysate was transferred to a new microplate. Galactosidase assays were performed in the microwell plates using a kit from Promega and read in a microplate reader. Compounds were tested in five concentrations ranging from 0.01 to 10 μM. […] The results were expressed as means (SD).

The next test concerns T24. Description: Growth inhibition, modified MTT assay, T24. Conditions: Homo sapiens, T-24, mean of 3 independent tests. The procedure:
(§1) The growth inhibition was evaluated by the modified MTT assay. Briefly, the cells were seeded at 1×10^4 cells/well in 96-well plates (Falcon, Calif., USA), and incubated for 24 h in […] culture media with 10% FCS. The media were then replaced by serum-free medium. After 24 h, the media were placed in triplicate with grade concentrations of compounds. As controls, the cells were cultivated in DMEM/F12 only. The cells were then treated by MTT (Sigma, USA) assay, […] (5 g/L) for 4 h. After the removal of the supernatant, the purple-blue sediment was dissolved in 100 μL/well DMSO, and the optical densities were read on the multi-well scanning spectrophotometer (Labsystems Dragon, Finland) at 492 nm (A492). The growth inhibition rate (GIR) of the treated cells was calculated using Equation: GIR(%)={1−[A490/A490(control)]}×100% The results were also converted to IC50 (the compound concentration required for 50% growth inhibition of tumor cells), which were calculated by using the sigmoidal fitting model by the Origin 7.0 software (OriginLab, Northampton, Mass., USA). The mean IC50 was determined from the results of 3 independent tests.

The subject of a further test is HepG2. Description: Growth inhibition, modified MTT assay, HepG2. Conditions: Homo sapiens, mean of 3 independent tests. The procedure: as §1
In another test the test system is MCF-7. Description: Growth inhibition, modified MTT assay, MCF-7. Conditions: Homo sapiens, MCF7; MCF-7, MTT, mean of 3 independent tests. As for the experimental part:
as §1

The test system of the next test is SPC-A1. Description: Growth inhibition, modified MTT assay, SPC-A1. Conditions: SPCA1, mean of 3 independent tests. As for the experimental part:
as §1

pEC50, pIC50: −log10 of the molar value.

On to `CC(Cc1ccc(Oc2cc(N3CCN(Cc4cccc5ccccc45)CC3)nc(N)n2)cc1)(Oc1ccccc1)C(=O)O` (centres unmarked) [Compound 6, 3-{4-[2-Amino-6-(4-(naphthalen-1-ylmethyl)-piperazin-1-yl)-pyrimidin-4-yloxy]-phenyl}-2-methyl-2-phenoxy-propionic acid], for which the pEC50 at PPAR-γ is 5.47. Moreover, the pIC50 was 4.44 in the test on T24, 4.61 in the test on HepG2, 4.37 with MCF-7 and 4.30 in the test with SPC-A1.
`CC(Cc1ccc(Oc2cc(N3CCN(Cc4ccc(C(C)(C)C)cc4)CC3)nc(N)n2)cc1)(Oc1ccccc1)C(=O)O` (centres unmarked) [Compound 14, 3-{4-{2-Amino-6-[4-(4-tert-butyl-benzyl)-piperazin-1-yl]-pyrimidin-4-yloxy}-phenyl}-2-methyl-2-phenoxy-propionic acid]: the pEC50 at PPAR-γ was 5.22. For the same compound, the pIC50 in the test on T24 was 4.90; with HepG2, 4.58; in the test on MCF-7, 5.10; in the test on SPC-A1, 5.07.
With `CC(Cc1ccc(Oc2cc(N3CCN(C(=O)c4ccccc4)CC3)nc(N)n2)cc1)(Oc1ccccc1)C(=O)O` (centres unmarked) [Compound 21, 3-{4-[2-Amino-6-(4-benzoyl-piperazin-1-yl)-pyrimidin-4-yloxy]-phenyl}-2-methyl-2-phenoxy-propionic acid], the pIC50 in the test with T24, with HepG2, with MCF-7 and in the test with SPC-A1 was less than 4.30 each time.
Turning to `CC(Cc1ccc(Oc2cc(N3CCN(Cc4cccc(C#N)c4)CC3)nc(N)n2)cc1)(Oc1ccccc1)C(=O)O` (centres unmarked) [Compound 26, 3-{4-{2-Amino-6-[4-(3-cyano-benzyl)-piperazin-1-yl]-pyrimidin-4-yloxy}-phenyl}-2-methyl-2-phe noxy-propionic acid], the pIC50 in the test with T24 was 4.41; with HepG2, 4.45; in the test on MCF-7, 4.63; in the test on SPC-A1, 4.42.
`C[C@@](Cc1ccc(Oc2cc(N3CCN(Cc4ccccc4)CC3)nc(N)n2)cc1)(Oc1ccccc1)C(=O)O` [Compound 3, S-3-{4-[2-Amino-6-(4-benzyl-piperazin-1-yl)-pyrimidin-4-yloxy]-phenyl}-2-methyl-2-phenoxy-propionic acid]: the pEC50 at PPAR-γ is 5.48.
In turn, `CC(Cc1ccc(Oc2cc(N3CCN(c4ccccc4)CC3)nc(N)n2)cc1)(Oc1ccccc1)C(=O)O` (centres unmarked) [Compound 22, 3-{4-[2-Amino-6-(4-phenyl-piperazin-1-yl)-pyrimidin-4-yloxy]-phenyl}-2-methyl-2-phenoxy-propionic acid] had a pEC50 on PPAR-γ of 5.33. The pIC50 in the test with T24 is 4.65; in the test on HepG2, 4.53; in the test with SPC-A1, 4.49.
For the compound `Cc1cccc(CN2CCN(c3cc(Oc4ccc(CC(C)(Oc5ccccc5)C(=O)O)cc4)nc(N)n3)CC2)c1` (centres unmarked) [Compound 9, 3-{4-{2-Amino-6-[4-(3-methyl-benzyl)-piperazin-1-yl]-pyrimidin-4-yloxy}-phenyl}-2-methyl-2-phenoxy-propionic acid], the pEC50 at PPAR-γ is 5.38. Further, the pIC50 was less than 4.30 in the test with T24, less than 4.30 in the test with HepG2, 4.42 in the test on MCF-7 and 4.31 in the test with SPC-A1.
`COc1ccc(OC(C)(Cc2ccc(Oc3cc(N4CCN(Cc5ccccc5)CC4)nc(N)n3)cc2)C(=O)O)cc1` (centres unmarked) [Compound 30, 3-{4-[2-Amino-6-(4-benzyl-piperazin-1-yl)-pyrimidin-4-yloxy]-phenyl}-2-(4-methoxy-phenoxy)-2-methyl-propionic acid] showed a pEC50 on PPAR-γ of 5.24. The pIC50 in the test on T24 is less than 4.30; in the test with HepG2, less than 4.30; in the test on MCF-7 it was 4.37; with SPC-A1 it was 4.41.
Take `CC(Cc1ccc(Oc2cc(N3CCN(Cc4ccccn4)CC3)nc(N)n2)cc1)(Oc1ccccc1)C(=O)O` (centres unmarked) [Compound 36, 3-{4-[2-Amino-6-(4-pyridin-2-ylmethyl-piperazin-1-yl)-pyrimidin-4-yloxy]-phenyl}-2-methyl-2-phenoxy-propionic acid]: the pIC50 with T24, in the test with HepG2, with MCF-7 and with SPC-A1 was less than 4.30 in each case.
At PPAR-γ, `CC(Cc1ccc(Oc2cc(N3CCN(Cc4cccc(C(F)(F)F)c4)CC3)nc(N)n2)cc1)(Oc1ccccc1)C(=O)O` (centres unmarked) [Compound 10, 3-{4-{2-Amino-6-[4-(3-trifluoromethyl-benzyl)-piperazin-1-yl]-pyrimidin-4-yloxy}-phenyl}-2-methyl-2-phenoxy-propionic acid] had a pEC50 of 5.37. Moreover, the pIC50 is 4.54 in the test with T24, 4.42 in the test with HepG2, 4.82 in the test on MCF-7 and 4.60 in the test with SPC-A1.
For the compound `COc1ccccc1C(=O)N1CCN(c2cc(Oc3ccc(CC(C)(Oc4ccccc4)C(=O)O)cc3)nc(N)n2)CC1` (centres unmarked) [Compound 25, 3-{4-{2-Amino-6-[4-(2-methoxy-benzoyl)-piperazin-1-yl]-pyrimidin-4-yloxy}-phenyl}-2-methyl-2-phenoxy-propionic acid], the pIC50 with T24, in the test with HepG2, in the test on MCF-7 and in the test with SPC-A1 was less than 4.30 throughout.
On to `CC(Cc1ccc(Oc2cc(N3CCN(c4cccc(Cl)c4)CC3)nc(N)n2)cc1)(Oc1ccccc1)C(=O)O` (centres unmarked) [Compound 23, 3-{4-{2-Amino-6-[4-(3-chloro-phenyl)-piperazin-1-yl]-pyrimidin-4-yloxy}-phenyl}-2-methyl-2-phenoxy-propionic acid], for which, on PPAR-γ, the pEC50 was 5.36. The pIC50 is 4.82 with T24, 4.70 with HepG2, 4.93 in the test with MCF-7 and 4.92 with SPC-A1.
For `CCCc1ccc(C(=O)N2CCN(c3cc(Oc4ccc(CC(C)(Oc5ccccc5)C(=O)O)cc4)nc(N)n3)CC2)cc1` (centres unmarked) [Compound 24, 3-{4-{2-Amino-6-[4-(4-propyl-benzoyl)-piperazin-1-yl]-pyrimidin-4-yloxy}-phenyl}-2-methyl-2-phenoxy-propionic acid], the pIC50 in the test on T24 is 4.40; in the test with HepG2, less than 4.30; in the test on MCF-7 it was 4.42; with SPC-A1, 4.36.
Compound `C[C@@](Cc1ccc(Oc2cc(N3CCN(Cc4ccccc4)CC3)nc(N)n2)cc1)(Oc1ccccc1)C(=O)O` (stereo in doubt) [Compound 4, R-3-{4-[2-Amino-6-(4-benzyl-piperazin-1-yl)-pyrimidin-4-yloxy]-phenyl}-2-methyl-2-phenoxy-propionic acid] had a pEC50 on PPAR-γ of 5.24.
